Holding throughout (format): cell-based
Assay [1] concerns SKOV-3 ovarian cancer cells. The assay can be described thus: CELLTITER-GLO Luminescent Cell Viability Assay, SKOV-3 ovarian cancer cells. The source says: In example 1, CELLTITER-GLO was used to test levonorgestrel against ovarian cancer. m) A cell counter was used to count the number of suspended cells and adjust the cell suspension to an appropriate density in the plate to carry out cell plating experiments. n) SKOV-3 cells were handled as described above, and a SKOV-3 96-well cell culture plate was obtained. The complete medium for SKOV-3 cells was McCOY'S 5A (a live product), Cat #16600082, with a cells/well density of 12000. 2. The drug analyte levonorgestrel was prepared and administered (200× final concentration): a) DMSO was used to dilute the analyte levonorgestrel to 20 mM for use. b) 79 μL of the 20 mM analyte prepared in step a) was added to the first well in the first row of the dilution plate, and then 54 μL of DMSO solution was added to the second through ninth wells of the first row. […] The final concentrations (μM) of the analyte drug in wells 2-10 in FIG. 1 are, in order: 100, 31.64557, 10.01442, 3.16912, 1.002886, 0.317369, 0.100433, 0.031783, 0.010058; B. CELLTITER-GLO Luminescent Cell Viability Assay System a) Before testing, the SKOV-3 96-well drug screening plate described in 3 above was stabilized to room temperature for 20-30 minutes. c) 100 μl of CellTiter-Glo reagent (prepared as described in 1 above) was added to all drug screening plates and mixed evenly. d) It was thoroughly oscillated in a 96-well microplate oscillator for 2 minutes to allow the cells to undergo full lysis. e) It was stored away from light at room temperature for 15 minutes before carrying out luminescent signal detection to ensure signal stability. f) An EnSpire multi-function plate reader was used at 570 nm to read the luminescent signals. g) Data was processed and analyzed.

In assay [2] the test system is NCI-H1993 human lung non-small cell carcinoma cells. Kind of assay: CELLTITER-GLO cell viability assay, NCI-H1993 cells (same method). As to the method:
(§1) In the examples below, the product sources for the SKOV-3 ovarian cancer cells, the NCI-H1993 non-small cell human lung cancer cells, and the NCI-H441 human lung adenocarcinoma cells are as follows: In example 1, CELLTITER-GLO was used to test levonorgestrel against ovarian cancer. c) The SKOV-3 96-well cell plates prepared in step 1 were removed from the incubator, and 10 μl of the cell culture media (10× final concentration) with varying drug concentrations as described in b) above was added to the SKOV-3 96-well cell culture plate row-by-row as shown in FIG. 1. It was placed into a CO2 incubator at 37° C. for 72 hours, obtaining the SKOV-3 96-well drug screening plate. The final concentrations (μM) of the analyte drug in wells 2-10 in FIG. 1 are, in order: 100, 31.64557, 10.01442, 3.16912, 1.002886, 0.317369, 0.100433, 0.031783, 0.010058; B. CELLTITER-GLO Luminescent Cell Viability Assay System c) 100 μl of CellTiter-Glo reagent (prepared as described in 1 above) was added to all drug screening plates and mixed evenly. f) An EnSpire multi-function plate reader was used at 570 nm to read the luminescent signals. The same method was used to test levonorgestrel's action on the IC50 values of NCI-H1993 human lung non-small cell carcinoma cells and NCI-H441 human lung adenocarcinoma cells; results are shown in Table 1.

The subject of assay [3] is NCI-H441 human lung adenocarcinoma cells. Kind of assay: CELLTITER-GLO cell viability assay, NCI-H441 cells (same method). The method, then: as §1
A general note: In ATP-based viability assays light output follows the ATP content of the culture.

For orientation: IC50 means the concentration needed to halve the response being measured. The low end stands for greater potency, the high end for weaker potency. One may read the EC50 as the midpoint of the concentration-response curve. A low value points to greater potency. Take `C#C[C@]1(O)CC[C@H]2[C@@H]3CCC4=CC(=O)CC[C@@H]4[C@H]3CC[C@@]21CC` [levonorgestrel]: the half-inhibitory concentration (IC50) in assay [1] (Homo sapiens, SK-OV-3, SKOV-3 cells, 72 hours, CellTiter-Glo) was 3.34 µM; in assay [2] it was no less than 100 µM; in assay [3], no less than 100 µM. This molecule also showed an EC50 in assay [1] (Homo sapiens, SK-OV-3, SKOV-3 cells, 72 hours, CellTiter-Glo, FIG. 2) of 3.08 µM. Also, the “effect on the proliferation of ovarian cancer cells” value in assay [1] (compared with NCI-H441 and NCI-H1993 lung cancer cells) is reported as “specific inhibitory effect”.

The values above are taken from patent publication US10792291B2, “Applications for levonorgestrel in preparing anti-ovarian cancer products” (SHANGHAI JIAO TONG UNIVERSITY, priority 2015, dated 2020).
